US12558352B2, “Use of malic enzyme 1 (ME1) in preparation of drug for preventing and treating pulmonary hypertension (PH)” (Institute of Basic Medical Sciences, CAMS, priority 2022, dated 2026)

Key:
SuHx-induced PH mice = test: Preventive treatment of SuHx-induced PH mice; type: in vivo, mouse; details: compared with vehicle
Protocol: 8 to 10 week-old SPF-grade C57BL/6J male mice weighing 25 g to 30 g were fed in a hypoxia chamber (an oxygen concentration in the chamber was maintained at 10%) while receiving weekly subcutaneous injections of 20 mg/kg of SU5416 for 0 weeks (n=8), 1 week (n=8), 2 weeks (n=8), and 3 weeks (n=8). The mouse lung tissues were collected and assessed for RVSP and RVHI and analyzed for PAMT.
The RVSP can be used to evaluate a pulmonary artery pressure (PAP) of the mouse, and the RVHI can reflect the right ventricular involvement and right ventricular hypertrophy of the mouse due to excessive PVR. The specific operation steps were as follows: (1) After anesthetized with 2% pentobarbital sodium (50 mg/kg by intraperitoneal injection), the mice were fixed on an operating board. (2) Power Lab was started and then connected to a pressure transducer. (3) The skin of the anterior chest wall of the mouse was cut with surgical scissors to clearly expose the position of manubrium sternum. (4) A 22-gauge needle was inserted into the right ventricle (RV) at 45° along an intersection point of the manubrium sternum and the left costal margin through the closed chest, and a position of the needle tip in the heart cavity was determined by the waveform; a stable RVSP waveform was saved and an RVSP measured value were recorded through Chart program. (5) The mice were sacrificed to obtain the heart; excess connective tissue and appendages in the heart were removed, and a free wall of the right ventricle was cut; the right ventricle, left ventricle, and interventricular septum (Left ventricular+septum, LV+S) were weighed to calculate RVHI=RV/LV+S.
PAMT is used to analyze the morphological changes of pulmonary vessels. In the present disclosure, a primary antibody of α-smooth muscle actin (α-SMA), a surface marker of pulmonary vascular smooth muscle cells, was stained by immunohistochemistry, and then a percentage of PAMT was calculated to evaluate the pulmonary vascular remodeling of PH mice. […] After deparaffinized and antigen retrieval (a pH of citric acid buffer was 6.0), the section was incubated with a primary antibody against α-SMA at 4° C. overnight, and then incubated with a horseradish peroxidase-bound secondary antibody. After counterstained with hematoxylin, cell nuclei were rinsed with tap water and differentiated with 0.5% […], soaked in tap water for 15 min, routinely dehydrated, subjected to transparent treatment, sealed with glycerogelatin and photographed. Statistical analysis: pulmonary vessel thickness was measured with a diameter of (0-50) μm and (50-100) μm. At least 20 vessels with a diameter of (0-50) μm and at least 15 vessels with a diameter of (50-100) μm were assessed per mouse, and the PAMT percentage was calculated as: (outer circumference/2π-inner circumference/2π)/(outer circumference/2π)×100.
Echocardiography was conducted using a Vevo 2100 ultrasound imaging platform to evaluate the dynamic changes of blood flow in the right heart of PH mice. (1) The mice were depilated to fully expose the skin on the chest wall. (2) The mice were placed on a constant-temperature heating plate at 37° C., anesthetized with 3.0% isoflurane through the nose and mouth, and the inhalation was continued with 1.5% isoflurane after the mice were anesthetized. (3) The mice were smeared with a small amount of coupling agent on their limbs and the limbs were fixed, and dynamic changes of the body temperature, heart rate, respiration rate, and electrocardiogram for mice were continuously recorded, while ensuring that the mice were in a resting state. (4) The ultrasound probe was placed, an appropriate amount of coupling agent was added, the pulmonary artery acceleration time (PAAT), pulmonary artery ejection time (PAET), and velocity-time integral were determined at a short-axis position, and then obtained frequency spectrum was saved and added with color ultrasound. […]

ME1 = molecular target: T1, ME1 (Mus musculus, UniProt P06801); test: Dose-finding: inhibition of ME1 enzymatic activity in lung tissue of normoxia mice after single intraperitoneal injection; type: in vivo; details: dose greater than or equal to 100 mg/kg (doses tested 1, 10, 100, 200, 500 mg/kg)
T1 construct: from tissue; host or cells: mouse lung tissue (normoxia mice, lysate after intraperitoneal dosing)
T1 sequence (P06801 1-572): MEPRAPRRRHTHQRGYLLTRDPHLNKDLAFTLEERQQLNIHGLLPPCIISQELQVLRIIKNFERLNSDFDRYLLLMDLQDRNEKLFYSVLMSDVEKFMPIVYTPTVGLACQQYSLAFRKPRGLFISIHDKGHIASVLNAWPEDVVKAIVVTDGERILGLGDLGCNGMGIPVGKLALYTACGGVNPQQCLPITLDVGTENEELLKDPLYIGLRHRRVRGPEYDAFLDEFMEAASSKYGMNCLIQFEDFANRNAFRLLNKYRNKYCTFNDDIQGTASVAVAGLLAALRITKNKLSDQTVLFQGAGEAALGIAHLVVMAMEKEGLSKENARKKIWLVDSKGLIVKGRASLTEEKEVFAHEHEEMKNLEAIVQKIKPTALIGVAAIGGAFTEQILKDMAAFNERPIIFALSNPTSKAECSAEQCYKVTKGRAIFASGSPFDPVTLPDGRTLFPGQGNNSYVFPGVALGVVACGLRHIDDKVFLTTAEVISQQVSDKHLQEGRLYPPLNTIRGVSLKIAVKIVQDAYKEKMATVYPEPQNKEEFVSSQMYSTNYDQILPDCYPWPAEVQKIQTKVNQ
Protocol: Histone supernatants or mitochondrial extracts were used to detect ME1 enzymatic activity. (1) Liquid preparation: an ME1 reaction buffer (pH=7.4) was prepared from 67 mM triethanolamine and 5.0 mM manganese chloride. (2) Sample preparation: a protein lysate was centrifuged at 13,000 rpm for 15 min at 4° C. (3) Adding samples: a reaction system included ME1 reaction buffer+L-malic acid (3.3 mM)+β-NADP^+ (0.3 mM)+protein lysate, with a total volume of 150 μL. (4) Reading was done with a multi-functional microplate reader, at a reading temperature maintained at 37° C., and an absorbance value was monitored at a wavelength of 340 nm every 50 s for a total of 30 min. (5) The protein concentration was determined for standardization. (6) The change of absorbance per mg of protein per unit time was calculated. In the present disclosure, normoxia mice are intraperitoneally injected with ME1*, at single injection doses of 1, 10, 100, 200, and 500 mg/kg, respectively, to explore the inhibitory effect of ME1* on the enzymatic activity of ME1 in mouse lung tissues.

[1] = Safety evaluation of preventive treatment (body weight, HE staining of organs); type: in vivo, mouse; details: 100 mg/kg intraperitoneally once a day
Protocol: Male SPF-grade C57BL/6J mice aged 8 to 10 weeks with a body weight of 25 g to 30 g were randomly divided into the following 4 groups: • (1) Normoxia+vehicle control group: 6 mice were fed in a normoxia environment for 3 weeks; from the second week, the mice were intraperitoneally injected with vehicle (100 mg/kg) once a day, for a total of 14 injections. • (2) Normoxia+ME1* treatment group: 6 mice were fed in a normoxia environment for 3 weeks; from the second week, the mice were intraperitoneally injected with ME1* (100 mg/kg) once a day, for a total of 14 injections. • (3) SuHx modeling+vehicle control group: 10 mice were treated with SuHx for 3 weeks (SuHx modeling method was the same as above); from the second week, the mice were intraperitoneally injected with vehicle (100 mg/kg) once a day, for a total of 14 injections. • (4) SuHx modeling+ME1* treatment group: 10 mice were treated with SuHx for 3 weeks; from the second week, the mice were intraperitoneally injected with ME1* (100 mg/kg) once a day, for a total of 14 injections. […]

[2] = 100 mg/kg intraperitoneally once a day, 14 injections
[3] = echocardiography, 100 mg/kg intraperitoneally once a day

enzymatic activity of ME1 in mouse lung tissue (ME1): significantly inhibited
SMILES: O=C1CC(N2CCN(c3ccc(O)cc3)CC2)C(=O)N1c1ccccc1 (stereo not drawn) [ME1*]
progression of PH (SuHx-induced PH mice; 100 mg/kg intraperitoneally once a day from second week, 14 injections): significantly slowed | RVHI (%) (SuHx-induced PH mice; [2]): significantly lower | RVSP (SuHx-induced PH mice; [2]): significantly lower | PA AT/ET (SuHx-induced PH mice; [3]): significantly higher | TAPSE (SuHx-induced PH mice; [3]): significantly higher | PAMT percentage (SuHx-induced PH mice; pulmonary artery diameters 0-50 μm and 50-100 μm, 100 mg/kg intraperitoneally once a day): significantly lower | tissue and organ damage (HE staining of lung, heart, liver, spleen, kidney, small intestine) ([1]; after the treatment, 14 injections): no obvious tissue and organ damage | body weight of the mice ([1]; weighed every week, compared with vehicle group): not significantly reduced
